Where two headings read alike, the source gives them in different places. Bounds are passed on as bounds.

The assay concerns the target Human Factor D (Homo sapiens (Human), UniProt P00746). Description: Human Factor D Assay. It counts as biochemical. In short, it runs like this:
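Serum-purified human Factor D (80 nM final) was preincubated with test compound at various concentrations for 5 min at room temperature in 50 mM Tris, 1M NaCl, pH 7.5. Z-L-Lys-SBzl and DTNB were then added at 100 μM each. IC50 came from nonlinear regression of reaction rates versus compound concentration.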

[1] abbreviates: Human Factor D, Table 3, read-out: IC50.
The mark [2] stands for this setting: Human Factor D 80 nM, substrate Z-L-Lys-SBzl, read-out: IC50.
[3] abbreviates: Table 3, Human Factor D 80 nM, substrate Z-L-Lys-SBzl, read-out: IC50 (Stars).
Setting [4] is: Human Factor D assay of Example 8, Table 2, read-out: IC50.

Chain of Human Factor D (P00746 26-253): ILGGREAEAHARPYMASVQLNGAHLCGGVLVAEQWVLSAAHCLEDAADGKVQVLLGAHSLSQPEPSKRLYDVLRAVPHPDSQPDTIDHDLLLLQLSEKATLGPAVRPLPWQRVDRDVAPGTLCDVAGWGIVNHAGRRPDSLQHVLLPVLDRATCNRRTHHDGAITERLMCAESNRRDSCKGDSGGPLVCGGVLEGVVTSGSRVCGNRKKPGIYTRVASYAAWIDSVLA

A word on the IC50: it is the concentration that gives 50% inhibition. On to `CC(=O)c1nn(CC(=O)N2C[C@H](F)C[C@H]2C(=O)Nc2cccc(Br)n2)c2c(C)cc(-c3cnc(C)nc3)cc12` [Compound 608, (2S,4R)-1-(2-(3-Acetyl-7-methyl-5-(2-methylpyrimidin-5-yl)-1H-indazol-1-yl)acetyl)-N-(6-bromopyridin-2-yl)-4-fluoropyrrolidine-2-carboxamide], for which the IC50 under setting [1] was under 1 µM.

Consider `CC(=O)c1nn(CC(=O)N2[C@H](C(=O)N[C@@H](C)C(F)=C(C)C)C[C@@]3(C)C[C@@H]23)c2ccc(-c3cnc(C)nc3)cc12` [Compound 622, (1R,3S,5R)-2-(2-(3-acetyl-5-(2-methylpyrimidin-5-yl)-1H-indazol-1-yl)acetyl)-N-((S)-3-fluoro-4-methylpent-3-en-2-yl)-5-methyl-2-azabicyclo[3.1.0] hexane-3-carboxamide], for which the 50% inhibitory concentration (IC50) under setting [1] is under 1 µM.

In the case of `NC(=O)c1nn(CC(=O)N2C[C@H](F)C[C@H]2C(=O)Nc2nnc(-c3ccccc3Cl)s2)c2ccc(-c3ccnnc3)cc12` [Compound 115, 1-(2-((2S,4R)-2-(5-(2-chlorophenyl)-1,3,4-thiadiazol-2-ylcarbamoyl)-4-fluoropyrrolidin-1-yl)-2-oxoethyl)-5-(pyridazin-4-yl)-1H-indazole-3-carboxamide], under setting [2], the 50% inhibitory concentration (IC50) was over 10 µM.

`COc1cccc(NC(=O)[C@@H]2C[C@@H](F)CN2C(=O)Cn2nc(C(C)=O)c3cc(-c4cnc(C)nc4)ccc32)n1` [Compound 580, (2S,4R)-1-(2-(3-Acetyl-5-(2-methylpyrimidin-5-yl)-1H-indazol-1-yl)acetyl)-4-fluoro-N-(6-methoxypyridin-2-yl)pyrrolidine-2-carboxamide]: the IC50 under setting [1] is under 1 µM.

As to `CC(=O)c1nn(CC(=O)N2C[C@H](F)C[C@H]2C(=O)Nc2cccc(Br)n2)c2ccc(-c3cnc(C(=O)O)nc3)cc12` [Compound 598, 5-(3-Acetyl-1-(2-((2S,4R)-2-((6-bromopyridin-2-yl)carbamoyl)-4-fluoropyrrolidin-1-yl)-2-oxoethyl)-1H-indazol-5-yl)pyrimidine-2-carboxylic acid], the half-inhibitory concentration (IC50) under setting [1] is under 1 µM.

On to `CC(=O)c1nn(CC(=O)N2C[C@H](F)C[C@H]2C(=O)Nc2cccc(Br)n2)c2ccc(-c3cnc(CC(=O)O)nc3)cc12` [Compound 533, 2-(5-(3-Acetyl-1-(2-((2S,4R)-2-((6-bromopyridin-2-yl)carbamoyl)-4-fluoropyrrolidin-1-yl)-2-oxoethyl)-1H-indazol-5-yl)pyrimidin-2-yl)acetic acid], for which, under setting [3], the 50% inhibitory concentration (IC50) was under 1 µM.

On to `CC(=O)c1nn(CC(=O)N2[C@@H]3C[C@@H]3C[C@H]2C(=O)Nc2cnc(C)c(Br)n2)c2ccc(-c3cnc(C)nc3)cc12` [Compound 365, (1R,3S,5R)-2-(2-(3-Acetyl-5-(2-methylpyrimidin-5-yl)-1H-indazol-1-yl)acetyl)-N-(6-bromo-5-methylpyrazin-2-yl)-2-azabicyclo[3.1.0]hexane-3-carboxamide], for which the half-inhibitory concentration (IC50) under setting [3] was under 1 µM.

Take `CC(=O)c1nn(CC(=O)N2[C@@H]3C[C@@H]3C[C@H]2C(=O)NC/C(F)=C(\C)c2cccc(Cl)c2)c2ccc(-c3cnc(C)nc3)cc12` [Compound 516, (1R,3S,5R)-2-(2-(3-Acetyl-5-(2-methylpyrimidin-5-yl)-1H-indazol-1-yl)acetyl)-N—((Z)-3-(3-chlorophenyl)-2-fluorobut-2-en-1-yl)-2-azabicyclo[3.1.0]hexane-3-carboxamide]: under setting [3], the half-inhibitory concentration (IC50) is under 1 µM.

For the compound `CC(=O)c1cn(CC(=O)N2NCCC2C(=O)Nc2cccc(-c3ccccc3Cl)c2F)c2ccc(-c3cnc(C)nc3)cc12` (stereo not drawn) [Compound 227, 2-(2-(3-acetyl-5-(2-methylpyrimidin-5-yl)-1H-indol-1-yl)acetyl)-N-(2′-chloro-2-fluorobiphenyl-3-yl)pyrazolidine-3-carboxamide], the IC50 under setting [4] is under 1 µM.

Turning to `CC(=O)n1cc(NC(=O)N2C[C@H](F)C[C@H]2C(=O)Nc2cccc(Br)n2)c2ccc(-c3cnc(C)nc3)cc21` [Compound 292, (2S,4R)-N1-(1-acetyl-6-(2-methylpyrimidin-5-yl)-1H-indol-3-yl)-N2-(6-bromopyridin-2-yl)-4-fluoropyrrolidine-1,2-dicarboxamide], the half-maximal inhibitory concentration (IC50) under setting [4] was under 1 µM.

With `CC(=O)c1nn(CC(=O)N2C[C@H](F)C[C@H]2C(=O)Nc2cccc(Br)n2)c2ccc(-c3cnc(C)cn3)cc12` [Compound 465, (2S,4R)-1-(2-(3-Acetyl-5-(5-methylpyrazin-2-yl)-1H-indazol-1-yl)acetyl)-N-(6-bromopyridin-2-yl)-4-fluoropyrrolidine-2-carboxamide], under setting [3], the IC50 is under 1 µM.

On to `CC(=O)c1nn(CC(=O)N2C[C@H](F)C[C@H]2C(=O)Nc2cncc(Br)n2)c2ccc(-c3cnc(N)nc3)cc12` [Compound 353, (2S,4R)-1-(2-(3-Acetyl-5-(2-aminopyrimidin-5-yl)-1H-indazol-1-yl)acetyl)-N-(6-bromopyrazin-2-yl)-4-fluoropyrrolidine-2-carboxamide], for which, under setting [3], the IC50 was under 1 µM.

Consider `CC(=O)c1nn(CC(=O)N2[C@@H]3C[C@@H]3C[C@H]2C(=O)NCC(F)=C(C)C2CC2)c2ccc(-c3cnc(C)nc3)cc12` [Compound 551, (1R,3S,5R)-2-(2-(3-Acetyl-5-(2-methylpyrimidin-5-yl)-1H-indazol-1-yl)acetyl)-N-(3-cyclopropyl-2-fluorobut-2-en-1-yl)-2-azabicyclo[3.1.0]hexane-3-carboxamide], for which the IC50 under setting [1] was under 1 µM.

On to `CC(=O)c1nn(CC(=O)N2CC[C@H]2C(=O)Nc2cccc(C)n2)c2ccc(-c3cnc4ncccn34)cc12` [Compound 709, (S)-1-(2-(3-Acetyl-5-(imidazo[1,2-a]pyrimidin-3-yl)-1H-indazol-1-yl)acetyl)-N-(6-methylpyridin-2-yl)azetidine-2-carboxamide], for which, under setting [1], the concentration for half-maximal inhibition (IC50) was under 1 µM.

`COc1cc(Br)nc(NC(=O)[C@@H]2C[C@@]3(C)C[C@H]3N2C(=O)Cn2nc(C(C)=O)c3cc(-c4cnc(C)nc4)ccc32)c1` [Compound 484, (1R,3S,5R)-2-(2-(3-Acetyl-5-(2-methylpyrimidin-5-yl)-1H-indazol-1-yl)acetyl)-N-(6-bromo-4-methoxypyridin-2-yl)-5-methyl-2-azabicyclo[3.1.0]hexane-3-carboxamide]: the half-maximal inhibitory concentration (IC50) under setting [3] is under 1 µM.

Consider `CC(=O)c1nn(CC(=O)N2C[C@H](F)C[C@H]2C(=O)Nc2cccc(Br)n2)c2ccc(-c3cnc(OCC(F)(F)F)nc3)cc12` [Compound 505, (2S,4R)-1-(2-(3-Acetyl-5-(2-(S2,2,2-trifluoroethoxy)pyrimidin-5-yl)-1H-indazol-1-yl)acetyl)-N-(6-bromopyridin-2-yl)-4-fluoropyrrolidine-2-carboxamide], for which the half-inhibitory concentration (IC50) under setting [3] is under 1 µM.

As to `NC(=O)c1nn(CC(=O)N2[C@@H]3C[C@@H]3C[C@H]2C(=O)Nc2cccc(-c3ccccc3Cl)c2F)c2ccc(-c3ccc(F)nc3)cc12` [Compound 13, 1-(2-((1R,3S,5R)-3-(2′-chloro-2-fluorobiphenyl-3-ylcarbamoyl)-2-azabicyclo[3.1.0]hexan-2-yl)-2-oxoethyl)-5-(6-fluoropyridin-3-yl)-1H-indazole-3-carboxamide], under setting [2], the IC50 was under 1 µM.

For the compound `CC(=O)c1nn(CC(=O)N2C[C@H](F)C[C@H]2C(=O)NCc2cccc(Br)n2)c2ccc(-c3cnc(C)nc3)cc12` [Compound 483, (2S,4R)-1-(2-(3-Acetyl-5-(2-methylpyrimidin-5-yl)-1H-indazol-1-yl)acetyl)-N-((6-bromopyridin-2-yl)methyl)-4-fluoropyrrolidine-2-carboxamide], the concentration for half-maximal inhibition (IC50) under setting [3] was under 1 µM.

As to `COC(=O)Cc1ncc(-c2ccc3c(c2)c(C(C)=O)nn3CC(=O)N2C[C@H](F)C[C@H]2C(=O)Nc2cccc(Br)n2)cn1` [Compound 529, methyl 2-(5-(3-acetyl-1-(2-((2S,4R)-2-((6-bromopyridin-2-yl)carbamoyl)-4-fluoropyrrolidin-1-yl)-2-oxoethyl)-1H-indazol-5-yl)pyrimidin-2-yl)acetate], the concentration for half-maximal inhibition (IC50) under setting [3] is under 1 µM.

As to `CC(=O)c1nn(CC(=O)N2C[C@@](F)(CN(C)C)C[C@H]2C(=O)Nc2cccc(Br)n2)c2ccc(-c3cnc(C)nc3)cc12` [Compound 639, (2S,4S)-1-(2-(3-Acetyl-5-(2-methylpyrimidin-5-yl)-1H-indazol-1-yl)acetyl)-N-(6-bromopyridin-2-yl)-4-((dimethylamino)methyl)-4-fluoropyrrolidine-2-carboxamide], the IC50 under setting [1] was under 1 µM.

For the compound `CC(=O)c1nn(CC(=O)N2C[C@H](F)C[C@H]2C(=O)Nc2cccc(OC(F)(F)F)c2F)c2ccc(-c3cnc(N)nc3)cc12` [Compound 563, (2S,4R)-1-(2-(3-Acetyl-5-(2-aminopyrimidin-5-yl)-1H-indazol-1-yl)acetyl)-4-fluoro-N-(2-fluoro-3-(trifluoromethoxy)phenyl)pyrrolidine-2-carboxamide], the IC50 under setting [1] was under 1 µM.

For the compound `CC(=O)c1nn(CC(=O)N2C[C@@](F)(CF)C[C@H]2C(=O)Nc2nc(Br)ccc2C)c2ccc(-c3cnc(C)nc3)cc12` [Compound 511, (2S,4R)-1-(2-(3-Acetyl-5-(2-methylpyrimidin-5-yl)-1H-indazol-1-yl)acetyl)-N-(6-bromo-3-methylpyridin-2-yl)-4-fluoro-4-(fluoromethyl)pyrrolidine-2-carboxamide], under setting [3], the half-inhibitory concentration (IC50) is under 1 µM.

For the compound `NC(=O)c1nn(CC(=O)N2C[C@H](F)C[C@H]2C(=O)Nc2cccc(OC(F)(F)F)c2F)c2ccc(-c3cncnc3)cc12` [Compound 9, 1-(2-((2S,4R)-4-fluoro-2-(2-fluoro-3-(trifluoromethoxy)phenylcarbamoyl)pyrrolidin-1-yl)-2-oxoethyl)-5-(pyrimidin-5-yl)-1H-indazole-3-carboxamide], the IC50 under setting [2] was under 1 µM.

On to `Cc1ncc(-c2ccc3c(c2)c(C(C)O)nn3CC(=O)N2C[C@H](F)C[C@H]2C(=O)Nc2cccc(Br)n2)cn1` (stereo partly drawn) [Compound 376, (2S,4R)-N-(6-bromopyridin-2-yl)-4-fluoro-1-(2-(3-(1-hydroxyethyl)-5-(2-methylpyrimidin-5-yl)-1H-indazol-1-yl)acetyl)pyrrolidine-2-carboxamide], for which the IC50 (read-out: IC50 (Stars)) was 1 to 10 µM.

The record behind these values is US10287301B2 (Achillion Pharmaceuticals, Inc., priority 2015, dated 2019).
